Results reported in US20260216206A1 (MEDINCELL SA, priority 2023, published 2026).

Legend:
[1] = Open-label SAD and MAD study, pharmacokinetics in healthy subjects and patients (Example 5); assay type: in vivo, humans; details: oral, 2.5 to 20 mg/day for 7 days, steady-state
Procedure: (§1) This study was an open-label, SAD, and MAD study to evaluate the safety, tolerability, and PK of Formulation 1 in healthy subjects and patients with a diagnosis of schizophrenia or schizoaffective disorder. Healthy subjects received subtherapeutic Formulation 1 doses of up to 105 mg and patients received therapeutic doses of up to 566 mg. […] Subjects and patients who met screening eligibility were assigned to 1 of 8 active cohorts, or the Vehicle Cohort, as detailed in Table 5.1 below.
All cohorts included assessments of safety, tolerability, and intensive PK sampling.
Except for the starting dose of 70 mg, the study followed an adaptive design in which the decision to dose-escalate with Formulation 1 was based on a review of the PK and safety data from the preceding lower dose of Formulation 1.
An extensive PK collection scheme was applied following the last oral dose to fully characterize the PK at steady-state.
In multiple-dose cohorts, the 3 doses of Formulation 1 were administered on day 1, day 29 (week 4) and day 57 (week 8), respectively.

[2] = Open-label SAD and MAD study, safety and tolerability in healthy subjects and patients (Example 5); assay type: in vivo, humans; details: washout period following oral olanzapine, 4/127
Procedure: as §1
Safety was assessed during the study by evaluating AEs, clinical laboratory test results (serum, hematology, urinalysis, and prolactin), vital signs measurements, ECG, physical examination, injection site pain, local tolerability, and leakage assessment. […]
The safety endpoints in this study included incidence of adverse events, changes from baseline in ECG parameters, selected clinical laboratory values (including prolactin) and vital signs, as well as changes in neurological and clinical symptom assessments (eg, PANSS, ESRS, AIMS, BARS, CGI-S, C-SSRS), and other safety measures that were evaluated throughout the study.

[3] = after oral administration; cited from earlier work

In the case of `Cc1cc2c(s1)Nc1ccccc1N=C2N1CCN(C)CC1` [olanzapine, 2-methyl-4-(4-methyl-1-piperazinyl)-10H-thieno[2,3-b][1,5]benzodiazepine], the “Systemic exposure (Cmax, AUCt,ss) versus dose” value [1] is given as “dose-proportional”, the “Participants withdrawn due to adverse events” value [2] is given as 3.1% and the Half life [3] is given as “approximately 30 hours”.
